The numbers were not newly measured in US5331009A, “Pharmaceutical compositions for treating adrenoleukodystrophy” (Croda International plc, priority 1988, dated 1994), which cites them from elsewhere.

SMILES strings stand for the structures.

For the data set, the system named is ALD patients.

As for `CCCCCCCC/C=C\CCCCCCCC(=O)OCC(COC(=O)CCCCCCC/C=C\CCCCCCCC)OC(=O)CCCCCCC/C=C\CCCCCCCC` [glyceryl trioleate], the “C26:0 body levels” value (very long chain fatty acids omitted from diet, glyceryl trioleate used alone) is “reductions can occur”.

Regarding `CCCCCCCC/C=C\CCCCCCCC(=O)O` [oleic acid (C18:1), oleic acid], the “therapeutic benefit of administration to ALD patients” value (Rizzo, Neurology 36 (1986) 357, Moser, Ann. Neurol. 21, 1987) is “generally therapeutically advantageous”.
